Reference: US9113629B2, “4-amino-6-(4-substituted-phenyl)-picolinates and 6-amino-2-(4-substituted-phenyl)-pyrimidine-4-carboxylates and their use as herbicides” (DOW AGROSCIENCES LLC, priority 2013, dated 2015)
Like-named read-outs stand apart in the source and are kept apart here.

Key:
[1] = system: Key Broadleaf Weed and Crop Species; assay: Post-emergent Test II herbicidal activity (Table 5); format: in vivo; settings: post-emergence, 336 h, post-emergent, 14 days after application; for pest or weed control at 70 g/ha: 70 g ai/ha; for pest or weed control at 140 g/ha: 140 g ai/ha
In short: (§1)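 Injury was rated visually 14 d after treatment on a 0–100% scale against untreated controls. Test compounds, formulated with crop oil concentrate and surfactant and serially diluted down to 1/16× of the top rate, were applied by track sprayer at 187 L/ha onto first- to second-true-leaf seedlings.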

[2] = system: Key Grass and Sedge Weeds as well as Grass Crops; assay: Post-emergent Test II herbicidal activity (Table 6); format: in vivo; settings: post-emergence, 336 h; for pest or weed control at 70 g/ha: application rate 70 g ai/ha; for pest or weed control at 140 g/ha: application rate 140 g ai/ha
In short: as §1

[3] = ABUTH: velvetleaf (Abutilon theophrasti), read-out: Visual Growth Reduction (%) 14 Days After Application ABUTH
[4] = AMARE: redroot pigweed (Amaranthus retroflexus), read-out: Visual Growth Reduction (%) 14 Days After Application AMARE
[5] = BRSNN: oilseed-rape, canola (Brassica napus), read-out: Visual Growth Reduction (%) 14 Days After Application BRSNN
[6] = CHEAL: lambsquarters (Chenopodium album), read-out: Visual Growth Reduction (%) 14 Days After Application CHEAL
[7] = EPHHL: wild poinsettia (Euphorbia heterophylla), read-out: Visual Growth Reduction (%) 14 Days After Application EPHHL
[8] = HELAN: sunflower (Helianthus annuus), read-out: Visual Growth Reduction (%) 14 Days After Application HELAN
[9] = VIOTR: wild pansy (Viola tricolor), read-out: Visual Growth Reduction (%) 14 Days After Application VIOTR
[10] = Triticum aestivum, TRZSS (wheat), read-out: Visual Growth Reduction (%) 14 Days After Application, TRZSS
[11] = CYPES: yellow nutsedge (Cyperus esculentus), read-out: Visual Growth Reduction (%) 14 Days After Application, CYPES
[12] = DIGSA: crabgrass (Digitaria sanguinalis), read-out: Visual Growth Reduction (%) 14 Days After Application, DIGSA
[13] = ECHCG: barnyardgrass (Echinochloa crus-galli), read-out: Visual Growth Reduction (%) 14 Days After Application, ECHCG
[14] = ORYSA: rice (Oryza sativa), read-out: Visual Growth Reduction (%) 14 Days After Application, ORYSA
[15] = SETFA: giant foxtail (Setaria faberi), read-out: Visual Growth Reduction (%) 14 Days After Application, SETFA
[16] = SORVU: grain sorghum (Sorghum vulgare), read-out: Visual Growth Reduction (%) 14 Days After Application, SORVU
[17] = ZEAMX: maize, corn (Zea mays), read-out: Visual Growth Reduction (%) 14 Days After Application, ZEAMX

Row | SMILES | pest or weed control at 70 g/ha [1, 3] [%] | pest or weed control at 140 g/ha [1, 3] [%] | pest or weed control at 70 g/ha [1, 4] [%] | pest or weed control at 140 g/ha [1, 4] [%] | pest or weed control at 70 g/ha [1, 5] [%] | pest or weed control at 140 g/ha [1, 5] [%] | pest or weed control at 70 g/ha [1, 6] [%] | pest or weed control at 140 g/ha [1, 6] [%] | pest or weed control at 70 g/ha [1, 7] [%] | pest or weed control at 140 g/ha [1, 7] [%] | pest or weed control at 70 g/ha [1, 8] [%] | pest or weed control at 140 g/ha [1, 8] [%] | pest or weed control at 70 g/ha [1, 9] [%] | pest or weed control at 140 g/ha [1, 9] [%] | pest or weed control at 70 g/ha [2, 10] [%] | pest or weed control at 140 g/ha [2, 10] [%] | pest or weed control at 70 g/ha [2, 11] [%] | pest or weed control at 140 g/ha [2, 11] [%] | pest or weed control at 70 g/ha [2, 12] [%] | pest or weed control at 140 g/ha [2, 12] [%] | also measured
1 | COC(=O)c1nc(-c2ccc(I)cc2)c(Cl)c(N)c1Cl [Compound 96] | 95 to 100 | 95 to 100 | 85 to 94 | 95 to 100 | 75 to 84 | 85 to 94 | 95 to 100 | 95 to 100 | 75 to 84 | 45 to 59 | 95 to 100 | 95 to 100 | 0 to 29 | 0 to 29 | 60 to 74 | 75 to 84 | 95 to 100 | 95 to 100 | 60 to 74 | 75 to 84 | pest or weed control at 70 g/ha [2, 13]: 0 to 29%; pest or weed control at 140 g/ha [2, 13]: 60 to 74%; pest or weed control at 70 g/ha [2, 14]: 0 to 29%; pest or weed control at 140 g/ha [2, 14]: 0 to 29%; pest or weed control at 70 g/ha [2, 15]: 60 to 74%; pest or weed control at 140 g/ha [2, 15]: 75 to 84%; pest or weed control at 70 g/ha [2, 16]: 85 to 94%; pest or weed control at 140 g/ha [2, 16]: 85 to 94%; pest or weed control at 70 g/ha [2, 17]: 75 to 84%; pest or weed control at 140 g/ha [2, 17]: 75 to 84%
2 | COC(=O)c1nc(-c2cc(F)c(I)cc2F)nc(N)c1OC [Compound 101] | 85 to 94 | 85 to 94 | 85 to 94 | 85 to 94 | 95 to 100 | 95 to 100 | 85 to 94 | 85 to 94 | 95 to 100 | 95 to 100 | 85 to 94 | 85 to 94 | 0 to 29 | 0 to 29 | 30 to 44 | 30 to 44 | 45 to 59 | 45 to 59 | 45 to 59 | 60 to 74 | pest or weed control at 70 g/ha [2, 13]: 0 to 29%; pest or weed control at 140 g/ha [2, 13]: 85 to 94%; pest or weed control at 70 g/ha [2, 14]: 0 to 29%; pest or weed control at 140 g/ha [2, 14]: 0 to 29%; pest or weed control at 70 g/ha [2, 15]: 0 to 29%; pest or weed control at 140 g/ha [2, 15]: 60 to 74%; pest or weed control at 70 g/ha [2, 16]: 30 to 44%; pest or weed control at 140 g/ha [2, 16]: 45 to 59%; pest or weed control at 70 g/ha [2, 17]: 60 to 74%; pest or weed control at 140 g/ha [2, 17]: 60 to 74%
3 | Cc1c(-c2ccc(Br)cc2)nc(C(=O)O)c(Cl)c1N [Compound 78, 4-Amino-6-(4-bromophenyl)-3-chloro-5-methylpicolinic acid] | 95 to 100 | 95 to 100 | 85 to 94 | 95 to 100 | 85 to 94 | 95 to 100 | 85 to 94 | 85 to 94 | 0 to 29 | 0 to 29 | 95 to 100 | 95 to 100 | 0 to 29 | 0 to 29 | 45 to 59 | 45 to 59 | 0 to 29 | 95 to 100 | 0 to 29 | 0 to 29 | pest or weed control at 70 g/ha [2, 13]: 0 to 29%; pest or weed control at 140 g/ha [2, 13]: 0 to 29%; pest or weed control at 70 g/ha [2, 14]: 0 to 29%; pest or weed control at 140 g/ha [2, 14]: 0 to 29%; pest or weed control at 70 g/ha [2, 15]: 45 to 59%; pest or weed control at 140 g/ha [2, 15]: 60 to 74%; pest or weed control at 70 g/ha [2, 16]: 0 to 29%; pest or weed control at 140 g/ha [2, 16]: 0 to 29%; pest or weed control at 70 g/ha [2, 17]: 0 to 29%; pest or weed control at 140 g/ha [2, 17]: 30 to 44%
